In ChEMBL document CHEMBL4725278, “New coumarin/sulfocoumarin linked phenylacrylamides as selective transmembrane carbonic anhydrase inhibitors: Synthesis and in-vitro biological evaluation” (Bioorg Med Chem, 2020):

Experiments:
Carbonic anhydrase 12 = Carbonic anhydrase 12 (Homo sapiens, UniProt O43570); assay: Inhibition of recombinant human carbonic anhydrase 12 assessed as inhibition constant preincubated with enzyme for 10 mins by phenol red dye based stopped flow CO2 hydration assay
Carbonic anhydrase 9 = Carbonic anhydrase 9 (Homo sapiens, UniProt Q16790); assay: Inhibition of recombinant human carbonic anhydrase 9 assessed as inhibition constant preincubated with enzyme for 10 mins by phenol red dye based stopped flow CO2 hydration assay
Carbonic anhydrase 2 = Carbonic anhydrase 2 (Homo sapiens, UniProt P00918); assay: Inhibition of recombinant human carbonic anhydrase 2 assessed as inhibition constant preincubated with enzyme for 10 mins by phenol red dye based stopped flow CO2 hydration assay
Carbonic anhydrase 1 = Carbonic anhydrase 1 (Homo sapiens, UniProt P00915); assay: Inhibition of recombinant human carbonic anhydrase 1 assessed as inhibition constant preincubated with enzyme for 10 mins by phenol red dye based stopped flow CO2 hydration assay
Chain of Carbonic anhydrase 1 (P00915 whole entry): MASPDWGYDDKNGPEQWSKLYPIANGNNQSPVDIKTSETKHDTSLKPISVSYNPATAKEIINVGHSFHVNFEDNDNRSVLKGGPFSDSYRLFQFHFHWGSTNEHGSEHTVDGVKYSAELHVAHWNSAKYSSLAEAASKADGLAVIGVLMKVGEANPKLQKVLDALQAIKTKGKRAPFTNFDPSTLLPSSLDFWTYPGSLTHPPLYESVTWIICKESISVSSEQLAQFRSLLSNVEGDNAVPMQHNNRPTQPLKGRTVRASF

Chain of Carbonic anhydrase 12 (O43570 whole entry): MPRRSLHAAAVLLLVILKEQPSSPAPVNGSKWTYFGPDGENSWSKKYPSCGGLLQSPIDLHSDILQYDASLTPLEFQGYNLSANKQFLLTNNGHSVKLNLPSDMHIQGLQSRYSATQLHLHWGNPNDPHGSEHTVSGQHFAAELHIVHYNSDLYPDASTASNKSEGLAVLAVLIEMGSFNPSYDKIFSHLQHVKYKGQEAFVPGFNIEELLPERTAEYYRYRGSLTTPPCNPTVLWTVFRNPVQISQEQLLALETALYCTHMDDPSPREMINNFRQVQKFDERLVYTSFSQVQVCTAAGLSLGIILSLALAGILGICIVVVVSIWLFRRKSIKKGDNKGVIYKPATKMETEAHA

Row | SMILES | Ki (Carbonic anhydrase 12) [nM] | Ki (Carbonic anhydrase 9) [nM] | Ki (Carbonic anhydrase 2) [nM] | Ki (Carbonic anhydrase 1) [nM]
1 | Cc1cc(=O)oc2cc(NC(=O)NS(=O)(=O)c3ccc(F)cc3)ccc12 | 1.8 | 20.2 | – | –
2 | NS(=O)(=O)c1ccc(NC(=O)/C=C/c2ccccc2OC(F)F)cc1 | – | 6 | – | –
3 | COc1cc(/C=C/C(=O)Nc2ccc3c(c2)C=CS(=O)(=O)O3)cc(OC)c1OC | 208 | 536 | > 10000 | > 10000
4 | COc1ccc(/C=C/C(=O)Nc2ccc3c(c2)C=CS(=O)(=O)O3)c(F)c1 | 399 | 80.4 | > 10000 | > 10000
5 | O=C(/C=C/c1ccc(C(F)(F)F)cc1)Nc1ccc2oc(=O)ccc2c1 | 236 | 91.1 | > 10000 | > 10000
6 | Cc1cc(=O)oc2cc(NC(=O)/C=C/c3ccccc3)ccc12 | 649 | 514 | > 10000 | > 10000
7 | Cc1cc(=O)oc2cc(NC(=O)/C=C/c3ccc(F)cc3)ccc12 | 604 | 682 | > 10000 | > 10000
8 | O=C(/C=C/c1cccc([N+](=O)[O-])c1)Nc1ccc2oc(=O)ccc2c1 | 557 | 7210 | > 10000 | > 10000
9 | Cc1cc(=O)oc2cc(NC(=O)/C=C/c3ccccc3OC(F)F)ccc12 | 567 | 488 | > 10000 | > 10000
10 | N#Cc1ccc(/C=C/C(=O)Nc2ccc3oc(=O)ccc3c2)cc1 | 760 | 881 | > 10000 | > 10000
11 | N#Cc1ccc(/C=C/C(=O)Nc2ccc3c(c2)C=CS(=O)(=O)O3)cc1 | 520 | 39.8 | > 10000 | > 10000
12 | COc1cc(/C=C/C(=O)Nc2ccc3oc(=O)ccc3c2)cc(OC)c1OC | 149 | 157 | > 10000 | > 10000
13 | O=C(/C=C/c1cccc(F)c1)Nc1ccc2oc(=O)ccc2c1 | 411 | 43 | > 10000 | > 10000
14 | COc1ccc(/C=C/C(=O)Nc2ccc3c(C)cc(=O)oc3c2)cc1OC | 644 | 3040 | > 10000 | > 10000
15 | O=C(/C=C/c1ccc(F)c(F)c1)Nc1ccc2c(c1)C=CS(=O)(=O)O2 | 568 | 720 | > 10000 | > 10000
16 | O=C(/C=C/c1ccc(F)cc1)Nc1ccc2oc(=O)ccc2c1 | 265 | 40.9 | > 10000 | > 10000
17 | COc1cc(/C=C/C(=O)Nc2ccc3c(C)cc(=O)oc3c2)cc(OC)c1OC | 631 | 647 | > 10000 | > 10000

Row | SMILES | Ki (Carbonic anhydrase 12) [nM] | Ki (Carbonic anhydrase 9) [nM] | Ki (Carbonic anhydrase 2) [nM] | Ki (Carbonic anhydrase 1) [nM]
18 | COc1ccc(/C=C/C(=O)Nc2ccc3oc(=O)ccc3c2)c(OC)c1 | 446 | 87.4 | > 10000 | > 10000
19 | O=C(/C=C/c1ccc(Cl)cc1)Nc1ccc2oc(=O)ccc2c1 | 343 | 88.9 | > 10000 | > 10000
20 | O=C(/C=C/c1ccc(F)c(F)c1)Nc1ccc2oc(=O)ccc2c1 | 206 | 340 | > 10000 | > 10000
21 | O=C(/C=C/c1cc(Cl)cc(Cl)c1)Nc1ccc2oc(=O)ccc2c1 | 701 | 305 | > 10000 | > 10000
22 | COc1ccc(/C=C/C(=O)Nc2ccc3oc(=O)ccc3c2)c(F)c1 | 137 | 472 | > 10000 | > 10000
23 | O=C(/C=C/c1cccc(C(F)(F)F)c1)Nc1ccc2oc(=O)ccc2c1 | 221 | 88 | > 10000 | > 10000
24 | O=C(/C=C/c1ccccc1OC(F)F)Nc1ccc2oc(=O)ccc2c1 | 394 | 384 | > 10000 | > 10000
25 | Cc1cc(=O)oc2cc(NC(=O)/C=C/c3ccc(C#N)cc3)ccc12 | 575 | 854 | > 10000 | > 10000
26 | COc1ccc(/C=C/C(=O)Nc2ccc3oc(=O)ccc3c2)cc1OC | 15.5 | 321 | > 10000 | > 10000
27 | O=C(/C=C/c1cccc(C(F)(F)F)c1)Nc1ccc2c(c1)C=CS(=O)(=O)O2 | 480 | 65.4 | > 10000 | > 10000
28 | Cc1cc(=O)oc2cc(NC(=O)/C=C/c3ccc(F)c(F)c3)ccc12 | 699 | 773 | > 10000 | > 10000
29 | COc1ccc(/C=C/C(=O)Nc2ccc3c(C)cc(=O)oc3c2)c(F)c1 | 847 | 817 | > 10000 | > 10000
30 | COc1ccc(/C=C/C(=O)Nc2ccc3oc(=O)ccc3c2)cc1 | 427 | 884 | > 10000 | > 10000
31 | O=C(/C=C/c1ccccc1)Nc1ccc2oc(=O)ccc2c1 | 829 | 131 | > 10000 | > 10000
32 | O=C(/C=C/c1ccc(F)cc1)Nc1ccc2c(c1)C=CS(=O)(=O)O2 | 506 | 517 | > 10000 | > 10000
33 | Cc1cc(=O)oc2cc(NC(=O)/C=C/c3cccc(F)c3)ccc12 | 539 | 639 | > 10000 | > 10000
34 | O=C(/C=C/c1ccccc1OC(F)F)Nc1ccc2c(c1)C=CS(=O)(=O)O2 | 349 | 92.8 | > 10000 | > 10000
